Test results: patent US20110306554A1, “PEPTIDE CAPABLE OF BINDING TO IMMUNOGLOBULIN” (priority 2009, published 2011)
Non-standard residues stand in square brackets, D forms with d. Residues, ends and D or L forms follow the SMILES beside them. No end group written: not given here.

Experiments:
[1] = test system: rat collagen-arthritis model; experiment: Arthritis suppressing effects on rat collagen-arthritis model; assay type: in vivo, rats
Method: A rat collagen-arthritis model was used to examine arthritis suppressing effects of a peptide, referred to as peptide R13.
Female Lewis rats were primed with 500 μg of type II bovine-derived collagen and boosted with 100 μg of the same collagen at 7 and 14 days post priming, to induce collagen arthritis. Peptide R13, a scramble peptide (dYdPdYGdFdL), or methotrexate was administered once a day for a period of 25 consecutive days from 12 days after arthritis was fully developed, and arthritis suppressing effect was examined in terms of clinical score. Methotrexate was administered at a dose of 0.15 mg/kg as a control drug.
The required amount was calculated for each peptide, based on the animal weight. Physiological saline was gradually added to prepare suspensions, to make concentrations of 100 and 10 mg/ml.
The clinical score of each limb of the extremities in all cases was observed every third day from day 12, on which arthritis was developed, up to day 36, with day 0 being the day of priming with type II bovine-derived collagen. Observations were according to the following criteria, with the total score for the extremities being set to a maximum of 12. […]

[2] = test system: binding between human C1q protein and human immunoglobulin (IgG); experiment: Inhibition of binding between C1q and immunoglobulin (C1q spotted on nitrocellulose membrane, ALP-labeled IgG); conditions: peptide concentration 500 μg/ml, 400 ng human C1q per spot
From the text: Peptides were synthesized by GL Biochem (Shanghai), which have the following amino acid sequences: the amino acid sequence depicted in SEQ ID NO: 2 (peptide R2); a shorter amino acid sequence than this peptide, PGLYYF (SEQ ID NO: 1) (peptide R1); and amino acid sequences including the amino acid sequence depicted in SEQ ID NO: 2, SGKFTCKVPGLYYFT (SEQ ID NO: 3) (peptide R3), FTCKVPGLYYFTYHA (SEQ ID NO: 4) (peptide R4), STGKFTCKVPGLYYF (SEQ ID NO: 5) (peptide R5), and CKVPGLYYFVYHASH (SEQ ID NO: 7) (peptide R6). Each peptide was dissolved in DMSO to make a concentration of 10 mg/ml and stored.
Human C1q protein (Carbiochem) was dissolved in 10 mM HEPES, 300 mM NaCl, 40% glycerol (pH 7.2) to prepare a 200 μg/ml solution of human C1q protein. The solution of human C1q protein was spotted at a volume of 2 μl (400 ng) per spot onto a nitrocellulose membrane of a size of 5 mm by 15 mm (Hybond C; Amersham), which was then air-dried at room temperature for about one hour. The nitrocellulose membrane was soaked in TBS, incubated for 5 minutes, and blocked at room temperature for one hour using TBS (20 mM Tris-HCl, pH 7.5, 150 mM NaCl) containing 5% of a blocking agent (Amersham ECL blocking reagent; GE Healthcare). […]

[3] = test system: Monoclonal antibody cocktail-induced arthritis mice; experiment: Arthritis suppressing effects on arthritis-induced mice, Part 4; assay type: in vivo; conditions: intraperitoneal 100 mg/kg once a day from day 4; methotrexate 0.1 mg/kg
Method: Monoclonal antibody cocktail-induced arthritis mice were used to examine arthritis suppressing effects of peptides which are indicated as R13 in the section (3) in Example 2 and as R19 and R21 in the section (4) in Example 2. Arthritis was caused by intravenous administration of 2 mg/mouse of an arthritis-inducing monoclonal antibody cocktail and three days later, intraperitoneal administration of 50 μg/mouse of LPS. The peptides […] days from four days after the administration of the arthritis-inducing monoclonal antibody cocktail, and arthritis suppressing effect was examined in terms of clinical score and hind-limb volume determination.
The required amount was calculated for each peptide, based on the animal weight. […]
Measurement of body weight of animals was made on days 0, 3, 6, 9, 12, and 14 during the study period, with day 0 being the day of administration of the arthritis-inducing monoclonal antibody cocktail. Observation of general condition was made on a daily basis. […]
Results of examinations were expressed by mean value±standard error and analyzed using EXSAS (Version 7.1.6, Arm Systex Co., Ltd.). […] Quantitative data, such as body weights and leg volumes, were subjected to Bartlett's test, followed by Dunnett's multiple comparison test when the variance was uniform or Steel's multiple comparison test when the variance was not uniform.

[4] = test system: type III allergic (Arthus) reaction-induced rats; experiment: Immune-complex disease suppression in type III allergic (Arthus) reaction-induced rats, Part 2; assay type: in vivo
Method: Using forty-five 7-week-old male Slc:Wistar rats, examinations were made on peptides R13 and R19, in two series of examinations, each using a different method of administration (intraperitoneal administration and tail vein administration). Acclimation was carried out by giving normal solid chow CRF-1 for a period of 6 or 8 days. The back of the animals was shaved on the day prior to administration, and a mixed solution of OVA and Evans blue dye was administered into the tail vein on the day of administration. Each peptide solution was administered intraperitoneally or into the tail vein 30 minutes or 50 minutes after the administration of the mixed solution of OVA and Evans blue dye, respectively. For intracutaneous administration of an anti-OVA solution, […] was intracutaneously administered in the back of animals at a dose of 0.1 ml/site 30 minutes or 10 minutes after the administration of the tested substance in the case of intraperitoneal or intravenous administration, respectively, so as to generate a local Arthus reaction. After the reaction was allowed to be generated for 4 hours, the animals were euthanized, the blood was removed thoroughly, and then the dorsal skin was exfoliated. The Arthus reaction sites on the exfoliated skin were punched out, and the Evans blue dye was extracted from the punched skin overnight. The amount of dye leakage was quantified by measuring absorbance for the Evans blue dye with a spectrophotometer and using a calibration curve.
A suspension was prepared by placing a predetermined amount of hydrocortisone into a mortar, grinding it with pestle, and then adding physiological saline to make the final concentration of 10 mg/ml.
A predetermined amount of each peptide (peptides R13 and R19) was dissolved in physiological saline to make a 20 mg/ml solution. A 2 mg/ml solution was prepared by diluting the 20 mg/ml solution 10-fold with physiological saline. A 5 mg/ml solution was prepared by dissolving each peptide in a predetermined amount in physiological saline to make a prepared solution.
A mixed solution of OVA and Evans blue dye was administered into the tail vein at a dose of 2 ml/kg. Each peptide solution was administered intraperitoneally or into the tail vein 30 minutes or 50 minutes after the administration of the mixed solution of OVA and Evans blue dye, respectively. […]
Several cuttings were made in the skin strips that were punched out with a punch. […] The amount of dye leakage was calculated from a calibration curve of known amounts of the dye.
The mean value (mean)±standard deviation (SD) for each group was calculated with body-weight measurements and amounts of dye leakage. […]

[5] = tail vein administration, 10 mg/kg

CC(C)C[C@@H](NC(=O)CNC(=O)[C@H]1CCCN1)C(=O)N[C@H](Cc1ccc(O)cc1)C(=O)N[C@H](Cc1ccc(O)cc1)C(=O)N[C@H](Cc1ccccc1)C(=O)O [R13, dPGdLdYdYdF] (H-[dP]G[dL][dY][dY][dF]-OH)
abnormalities in general condition and effects on body weight ([1]; 100 and 10 mg/kg): abnormalities in general condition and effects on body weight were not observed

CKAPGLYYF (Immunoglobulin binding peptide) [R10]
inhibition of the binding between C1q and immunoglobulin [2]: inhibit the binding

dYdPdYGdFdL [scramble peptide, reference compound]
suppression effect (clinical score) ([1]; negative control peptide, once a day, 25 consecutive days): did not exhibit any suppression effects

dSdKdVdPGdLdYdYdF ([dS][dK][dV][dP]G[dL][dY][dY][dF]) [R19]
arthritis-suppressing effect (clinical score) compared with methotrexate [3]: arthritis-suppressing effect comparable to or greater than that of methotrexate | suppression (decrease of dye leakage) compared to negative control ([4]; intraperitoneal administration, 100 mg/kg): 50% | suppression effect (dye leakage) compared to negative control ([4]; intraperitoneal administration, 10 or 100 mg/kg): suppressed | suppression (decrease of dye leakage) compared to negative control [4, 5]: about 50% | suppression effect (dye leakage) compared to negative control [4, 5]: suppressed

STAKFTCKVPGLYYF (Immunoglobulin binding peptide) [R11]
inhibition of the binding between C1q and immunoglobulin [2]: inhibit the binding
